# In US20220048896A1, “PYRAZOLE COMPOUNDS SUBSTITUTED WITH HETEROARYL AND PHARMACEUTICAL USE THEREOF” (Japan Tobacco Inc., priority 2018, published 2022):
# Columns and labels:
# Assay type in all cases: cell-based
# [1] = tested on: Salmonella typhimurium TA98; assay: Ames test (reverse mutation test), strain TA98; details: for potential to induce reverse mutations, TA98: in the presence of S9 mix
# Experimental: (§1) Metabolites 1 to 3 and Metabolites A to E were each tested herein. The purpose of this test is to evaluate the potential of each metabolite to induce reverse mutations in the standard strains of Salmonella typhimurium (TA98, TA1537, TA100, and TA1535) and Escherichia coli (WP2uvrA), in either the presence or absence of a rat liver metabolic activation system (S9 mix).
# (§2) The solvent used herein was dimethyl sulfoxide (DMSO, 100 μL/plate).
# (§3) The test was performed by the pre-incubation method with or without S9 mix. When the test was performed without S9 mix, sodium phosphate buffer solution (pH 7.4) was added.
# (§4) 0.5 mL of S9 mix or 0.5 mL of 0.1 mol/L sodium phosphate buffer solution (pH 7.4), and 0.1 mL of the bacterial culture solution were added to a test tube containing 0.1 mL of the negative control formulation (DMSO alone), the metabolite, or the positive control formulation. The mixtures were pre-incubated at 37° C. for 20 minutes while shaking. After the pre-incubation period, 2 mL of top agar were added and the mixtures were vortex-mixed and seeded onto plates. Two plates per treatment were used. Each plate was incubated at 37±1° C. for 48 hours or more and the revertant colonies were counted. The mean number of revertant colonies for each treatment plate was then calculated. The presence or absence of growth inhibition due to any antibacterial effect of the test article and precipitation of the test article was observed grossly or under a stereomicroscope. […] Evaluation was based on mean values with no statistical comparisons being used.
# [2] = tested on: Salmonella typhimurium TA1537; assay: Ames test (reverse mutation test), strain TA1537
# Experimental: as §1, §2, §3, §4
# [3] = tested on: Salmonella typhimurium TA1535; assay: Ames test (reverse mutation test), strain TA1535
# Experimental: as §1, §2, §3
# (§5) 0.5 mL of S9 mix or 0.5 mL of 0.1 mol/L sodium phosphate buffer solution (pH 7.4), and 0.1 mL of the bacterial culture solution were added to a test tube containing 0.1 mL of the negative control formulation (DMSO alone), the metabolite, or the positive control formulation. The mixtures were pre-incubated at 37° C. for 20 minutes while shaking. After the pre-incubation period, 2 mL of top agar were added and the mixtures were vortex-mixed and seeded onto plates. Two plates per treatment were used. Each plate was incubated at 37±1° C. for 48 hours or more and the revertant colonies were counted. The mean number of revertant colonies for each treatment plate was then calculated. […]
# [4] = tested on: Salmonella typhimurium TA100; assay: Ames test (reverse mutation test), strain TA100; details: in the presence of S9 mix
# Experimental: as §1, §2, §3, §4
# Escherichia coli WP2uvrA = assay: Ames test (reverse mutation test), strain WP2uvrA; details: in the absence of S9 mix
# Experimental: as §1, §2, §3, §5
SMILES,"Number of revertant colonies TA98 ([1]; S9 mix +, 6.9 μg/plate)","Number of revertant colonies TA98 ([1]; S9 mix +, 21 μg/plate)","Number of revertant colonies TA98 ([1]; S9 mix +, 62 μg/plate)","Number of revertant colonies TA98 ([1]; S9 mix +, 185 μg/plate)","Number of revertant colonies TA98 ([1]; S9 mix +, 556 μg/plate)","Number of revertant colonies TA98 ([1]; S9 mix +, 1667 μg/plate)","Number of revertant colonies TA98 ([1]; S9 mix +, 5000 μg/plate)","Number of revertant colonies TA98 ([1]; S9 mix −, 6.9 μg/plate)","Number of revertant colonies TA98 ([1]; S9 mix −, 21 μg/plate)","Number of revertant colonies TA98 ([1]; S9 mix −, 62 μg/plate)","Number of revertant colonies TA98 ([1]; S9 mix −, 185 μg/plate)","Number of revertant colonies TA98 ([1]; S9 mix −, 556 μg/plate)","Number of revertant colonies TA98 ([1]; S9 mix −, 1667 μg/plate)","Number of revertant colonies TA98 ([1]; S9 mix −, 5000 μg/plate)","potential to induce reverse mutations, TA98 [1]","potential to induce reverse mutations, TA1537 ([2]; in the presence of S9 mix)","potential to induce reverse mutations, TA100 [4]",other results
CC(C)(Oc1cc(F)cc(-c2cc(N)nn2-c2cnc(C(F)(F)F)nc2)c1)C(F)(F)F [Metabolite 1],37,39,40,40,34,27,21,32,32,31,29,30,15,7,–,–,–,–
Nc1cc(-c2cc(F)cc(OC(F)(F)F)c2)n(-c2cncc(F)c2)n1 [Metabolite 2],35,37,35,36,22,20,16,30,30,28,28,12,9,7,–,–,–,–
Nc1cc(-c2cc(F)cc(OC(F)(F)F)c2)n(-c2cncc(C(F)(F)F)c2)n1 [Metabolite 3],36,38,38,33,27,25,17,29,28,29,26,24,18,14,–,–,–,–
"CC(C)(OCc1cc(F)cc(-c2cc(N)nn2-c2ccc(F)cc2)c1)C(F)(F)F [Metabolite A, reference compound]",–,–,–,–,–,–,–,–,–,–,–,–,–,–,had potential to induce reverse mutations,had potential to induce reverse mutations,–,–
Nc1cc(-c2cccc(OCC(F)(F)F)c2)n(-c2ccc(F)cc2)n1 [Metabolite B],–,–,–,–,–,–,–,–,–,–,–,–,–,–,had potential to induce reverse mutations,had potential to induce reverse mutations,had potential to induce reverse mutations,"potential to induce reverse mutations, TA1535 ([3]; in the presence of S9 mix): had potential to induce reverse mutations; potential to induce reverse mutations, TA1537 ([2]; in the absence of S9 mix): had potential to induce reverse mutations"
Cc1ccc(-n2nc(N)cc2-c2cccc(OCC(F)(F)F)c2)cc1 [Metabolite C],–,–,–,–,–,–,–,–,–,–,–,–,–,–,had potential to induce reverse mutations,had potential to induce reverse mutations,had potential to induce reverse mutations,"potential to induce reverse mutations, WP2uvrA (Escherichia coli WP2uvrA): had potential to induce reverse mutations"
Nc1cc(-c2cccc(OC(F)(F)F)c2)n(-c2cccc(F)c2)n1 [Metabolite D],–,–,–,–,–,–,–,–,–,–,–,–,–,–,–,–,had potential to induce reverse mutations,"potential to induce reverse mutations, TA1535 ([3]; in the absence of S9 mix): had potential to induce reverse mutations"
Cc1cccc(-n2nc(N)cc2-c2cccc(OC(F)(F)F)c2)c1 [Metabolite E],–,–,–,–,–,–,–,–,–,–,–,–,–,–,had potential to induce reverse mutations,had potential to induce reverse mutations,had potential to induce reverse mutations,–
